The record followed here is US11890279B2, “Quinolines that modulate SERCA and their use for treating disease” (Neurodon Corporation, priority 2020, dated 2024).

For this test, the system named is CSM14.1 cells. The test is described as follows: ER stress cell survival assay (thapsigargin).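 Further: survival read as CellTiter-Glo luminescence after overnight incubation.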 To be noted: compound 2 μM; about 15 μM thapsigargin; CSM14.1 cells. In kind it is cell-based.

Turning to `Cc1ccc2cccc(NC(=O)c3ccc(N(C)C)cc3)c2n1` [Compound C18, 4-N,N-Dimethylamino-N-(2-methylquinolin-8-yl)benzamide], the “Cell Survival” value is “B (B represents a value between 10% and 50%)”.
